Data reported in patent publication US20240245677A1, “SELECTED COMPOUNDS FOR TARGETED DEGRADATION OF BRD9” (C4 THERAPEUTICS, INC., priority 2021, published 2024).
Read-outs that look alike come from different tables or passages of the source.

Tests used:
BRD9 = molecular target: T1, BRD9 (Homo sapiens, UniProt Q9H8M2); experiment: BRD9 degradation in Yamato-SS cells (endogenous), Western blot; type: cell-based; conditions: percent BRD9 detected, read-out: Emax(%)
T1 sequence (Q9H8M2 1-597): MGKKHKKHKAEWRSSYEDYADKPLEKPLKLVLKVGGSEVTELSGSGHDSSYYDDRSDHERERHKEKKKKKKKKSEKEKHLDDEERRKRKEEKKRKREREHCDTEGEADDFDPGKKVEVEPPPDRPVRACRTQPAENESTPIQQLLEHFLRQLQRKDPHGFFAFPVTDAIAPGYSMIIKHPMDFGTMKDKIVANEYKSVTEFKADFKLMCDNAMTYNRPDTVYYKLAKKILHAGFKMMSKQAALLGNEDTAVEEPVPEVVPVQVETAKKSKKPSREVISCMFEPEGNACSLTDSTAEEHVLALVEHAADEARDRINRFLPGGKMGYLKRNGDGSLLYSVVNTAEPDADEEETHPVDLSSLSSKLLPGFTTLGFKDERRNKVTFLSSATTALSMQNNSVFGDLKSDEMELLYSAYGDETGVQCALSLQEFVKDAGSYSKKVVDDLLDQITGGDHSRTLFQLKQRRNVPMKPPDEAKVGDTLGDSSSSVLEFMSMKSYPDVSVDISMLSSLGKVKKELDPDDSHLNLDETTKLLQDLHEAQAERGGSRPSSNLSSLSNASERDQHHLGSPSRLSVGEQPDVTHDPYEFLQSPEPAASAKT
Protocol: The purpose of this study was to evaluate the detection of BRD9 in a human cell line and susceptibility to degradation by Compound 1.
Previously frozen YAMATO-SS human cells (provided by the RIKEN BRC through the National BioResource Project of the MEXT/AMED, Japan (cat #RCB3577)) were thawed. Upon thawing, the cells were transferred to a 15 mL conical tube containing 10 mL of warm RPMI-1640 medium (Catalog No. C2400500BT, Gibco, Grand Island, NY, USA) supplemented with 10% FBS (Catalog No. SV30087.03, Cytiva, Marlborough, MA, USA) and spun down for 5 minutes at 1200 rpm. An aliquot was diluted 2× with Trypan Blue solution 0.4% (Catalog No. 15250061, ThermoSischer Scientific, Waltham, MA, USA) and cell count was determined. […]
Samples were boiled for 5 minutes and placed on ice for 30 minutes. […] Supernatants were transferred to a new 2.0 mL microcentrifuge tube and total protein concentrations were measured using Pierce™ BCA Protein Assay Kit (Catalog No. 23225, ThermoFischer Scientific, Waltham, MA USA).
After total protein quantification, all samples were diluted to a fixed μg/μL of protein in 6× loading buffer (Catalog No. BP-111R, Boston Bioproducts, Inc., Milford, MA, USA) for a final concentration of 40 μg of total protein in 1× loading buffer per lane. […]

[1] = Crystallization from hot saturated solutions by slow cooling; type: physicochemical; conditions: for Comments / XRPD: hot saturated solution
Protocol: Samples with no precipitates were put in −20° C. freezer for crystallization. Precipitates were collected by centrifuged. Solid parts (wet cakes) were investigated by XRPD.

## COc1cc(-c2cn(C)c(=O)c(C)c2C)cc(OC)c1CN1CC[C@H](N2CCN(c3ccc(N[C@H]4CCC(=O)NC4=O)cc3F)CC2)C(F)(F)C1 [Compound 1, (S)-3-((4-(4-((S)-1-(2,6-dimethoxy-4-(1,4,5-trimethyl-6-oxo-1,6-dihydropyridin-3-yl)benzyl)-3,3-difluoropiperidin-4-yl)piperazin-1-yl)-3-fluorophenyl)amino)-piperidine-2,6-dione]
BRD9; 4 hr
  % BRD9 remaining: 1.2%
BRD9; 24 hr
  % BRD9 remaining: 3.4%
[1]; 2-MeTHF, add Pattern G as seeds, slurry for 5 days
  Comments: form after seeding: Pattern G
[1]; 2-MeTHF
  Comments: Clear solution
[1]; Acetone
  XRPD: Pattern B
[1]; Ethanol
  XRPD: Pattern F
[1]; Ethyl acetate
  Comments: Clear solution
[1]; Methanol
  Comments: Clear solution
